Experiments:
Type in all cases: cell-based, human
nm23H1-B gene [1] = assay: nm23H1-B mRNA expression in colon cancer cells treated with different anticancer agents (RT-PCR and real time PCR); conditions: HT29 cell line, 24 hrs
Protocol: To study the effect of other anticancer agents on expression of nm23H1-B gene, we took representative of different classes of anticancer agents like alkylating agents (cisplatin), topoisomerase I and II inhibitors (CPT-11), RNA/DNA antimetabolites (5-FU) and antimitotic agents (paclitaxel).
Cells were treated with different anticancer agents for 24 hrs and RNA was isolated.

nm23H1-A [2] = assay: nm23H1-A mRNA expression in colon cancer cells treated with different anticancer agents (RT-PCR and real time PCR); conditions: HT29 cell line, 24 hrs
nm23H1-B gene [3] = assay: RT-PCR / real time PCR of nm23H1-B mRNA in 5-FU treated colon cancer cell lines (Colo 205, HT29)
Protocol: (§1) The over expression of nm23H1-B was checked at RNA level by RT-PCR. Colo 205 cells were seeded in 6 well plates at 80% confluence and treated with 100 μM of 5FU for 24 hrs. Subsequently, 1 ml of Trizol reagent (Invitrogen) was added to the cells after a phosphate buffer saline washing for extraction of RNA. The total RNA was extracted using chloroform-isopropyl alcohol method. Finally, the pellet was washed with 70% ethanol and dried on a speed-vac. Control RNA from untreated cells was also extracted in a similar fashion (cells, not treated with 5FU.
(§2) RT-PCR was carried out using one step RT-PCR Kit (Qiagen) according to manufacturer's instructions. 1 μg of RNA was taken and mixed with specific primers of nm23H1A & nm23H1B respectively (Table 1, SEQ ID: 3,4,5). β2-micro globulin (primer sequence, Table 1, SEQ ID: 6,7) was used as a control. The PCR amplified samples were then analyzed on a 1.5% agarose gel.

nm23H1-A [4] = assay: RT-PCR / real time PCR of nm23H1-A mRNA in 5-FU treated colon cancer cell lines; conditions: Colo 205 cells, 100 μM, 24 hrs
Protocol: as §1, §2

[5] = tested on: nm23H1 protein (19.6 kDa form coded by nm23H1-B gene); assay: Two-dimensional PAGE / MALDI of untreated and 5FU treated Colo 205 cell lysate, differentially expressed proteins; conditions: colo 205 cells, 100 μM, 24 hrs, 2D PAGE spot intensity
Protocol: Two-dimensional gel electrophoresis was carried out to identify differentially expressed proteins on treatment with anticancer agents specifically, colon/colorectal cancer cell line (NCCS, Pune, India) was treated with 5-FU (Fivoflu, Dabur Pharma Ltd, India). Untreated cells (cells, not treated with 5FU) were taken as control.
100 μM of 5-FU was added to colo 205 cells seeded at 80% confluence and were harvested after 24 hrs of treatment. Cells were lysed in lysis buffer (Urea 0.54 g/ml, CHAPS 40 mg/ml and DTT 20 mg/ml) and the clear supernatant of treated and untreated (not treated with 5-FU) cell lysate were subjected to isoelectric focusing (Bio-Rad, Protean IEF Cell) on separate 17 cm IPG strips of 4-7 pH range.
Second dimension electrophoresis was subsequently carried out on a 12% SDS-PAGE (Protean II XL electrophoresis system, Bio-Rad). The gel was silver stained for visualization of the protein spots and a digitized image of the 2D gel was generated, using GS 800 Densitometer (Bio-Rad). […]
The protein spots showing more than 2-fold change in intensity in 5-FU treated and untreated samples were further analyzed. […] The dried samples were reconstituted in 10 μl of 0.1% (v/v of 50% acetonitrile) trifluoroacetic acid and peptides were detected on a Matrix-Assisted Laser Desorption/Ionisation-Time of Flight Mass Spectrometry (MALDI-TOF MS) (Voyager-DE STR). […]

nm23H1-B protein = assay: Western blot of nuclear and cytosolic fractions of 5FU treated Colo 205 cells; conditions: 100 μM, 24 hours
Protocol: Intracellular localization of both nm23H1-A & nm23H1-B gene was evaluated by Western Blot analysis. Colo 205 cells were treated with 100 μM 5FU for 24 hours and cells were removed from their dishes by gentle scraping. Cells were washed with cold PBS and then resuspended in cold nuclei extraction buffer (320 mM sucrose, 5 mM Mgcl2, 10 mM HEPES, 1% Triton X-100 at pH 7.4) at a ratio of 1 ml per million cells. Nuclear fraction was then pelleted by centrifugation at 2000×g and washed twice with nuclei washing buffer (same as nuclei extraction buffer without Triton X-100). Supernatant was collected separately as a cytosolic fraction. Protein was estimated in both nuclear and cytosolic fraction and equal amount of protein was loaded on a 15% SDS PAGE followed by electrobloting on to a polyvinylidene difluoride membrane. Transferred proteins were incubated with blocking buffer containing 3% bovine serum albumin in phosphate-buffered saline. Polyclonal antibody specific for nm23 protein (Santa Cruz) and peroxidase-labeled goat anti-rabbit IgG (Sigma) were used to probe the target gene.

Row | SMILES | mRNA levels of nm23H1-B (nm23H1-B gene [1]) | mRNA levels of nm23H1-A (nm23H1-A [2]) | change in nm23H1-B gene expression (RNA level) (nm23H1-B gene [3]; Colo 205 cells, 100 μM, 24 hrs, RT-PCR) | overexpression of nm23H1-B gene (nm23H1-B gene [3]; colon/colorectal cancer cells) | change in nm23H1-A expression level (RNA level) (nm23H1-A [4]) | up regulation of nm23H1 protein in treated cells as compared to untreated [5] | nm23H1-B protein level (nm23H1-B protein)
1 | CCc1c2c(nc3ccc(OC(=O)N4CCC(N5CCCCC5)CC4)cc13)-c1cc3c(c(=O)n1C2)COC(=O)[C@]3(O)CC [CPT11, camptothecin-11] | Increase | Increase | – | – | – | – | –
2 | CC(=O)O[C@H]1C(=O)[C@@]2(C)[C@H]([C@H](OC(=O)c3ccccc3)[C@]3(O)C[C@H](OC(=O)[C@H](O)[C@@H](NC(=O)c4ccccc4)c4ccccc4)C(C)=C1C3(C)C)[C@]1(OC(C)=O)CO[C@@H]1C[C@@H]2O [paclitaxel] | Increase | Increase | – | – | – | – | –
3 | O=c1[nH]cc(F)c(=O)[nH]1 [5-FU] | Increase | Increase | up regulation | about nine | insignificant change | more than 6 fold | up-regulation
4 | N.N.[Cl][Pt][Cl] [cisplatin] | Increase | Increase | – | – | – | – | –
